pIC50: −log10 of the molar value.
Key:
[1] = molecular target: T1, Bifunctional epoxide hydrolase 2 (Homo sapiens) (UniProt P34913); assay: Inhibition of recombinant human sEH expressed in Escherichia coli assessed as inhibition of substrate PHOME hydrolysis to 6-methoxy-2-naphthaldehyde at 10 ug/ml after 5 mins by fluorescence assay
T1 sequence (whole entry): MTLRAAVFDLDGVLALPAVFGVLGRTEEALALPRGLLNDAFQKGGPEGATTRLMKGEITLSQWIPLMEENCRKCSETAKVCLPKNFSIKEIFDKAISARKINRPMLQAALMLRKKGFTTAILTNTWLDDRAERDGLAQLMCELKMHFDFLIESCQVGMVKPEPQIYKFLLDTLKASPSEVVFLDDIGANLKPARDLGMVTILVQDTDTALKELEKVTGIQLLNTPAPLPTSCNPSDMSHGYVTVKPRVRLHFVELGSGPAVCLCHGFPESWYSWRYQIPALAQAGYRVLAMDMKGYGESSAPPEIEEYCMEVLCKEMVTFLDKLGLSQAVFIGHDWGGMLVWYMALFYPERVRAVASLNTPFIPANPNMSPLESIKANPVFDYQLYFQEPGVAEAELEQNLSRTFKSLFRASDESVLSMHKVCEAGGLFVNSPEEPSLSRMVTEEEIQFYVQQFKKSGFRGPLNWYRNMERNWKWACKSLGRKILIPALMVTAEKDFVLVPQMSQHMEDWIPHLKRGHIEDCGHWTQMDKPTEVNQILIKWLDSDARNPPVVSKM

[2] = organism: Mus musculus; assay: animal or person; conditions: Kunming, Ear, po, read-out: INH
Description: Antiinflammatory activity in Kunming mouse assessed as inhibition of xylene-induced ear edema at 150 mg/kg, po administered 45 mins prior to xylene challenge measured 15 mins post challenge

[3] = molecular target: T2, Bifunctional epoxide hydrolase 2 (Homo sapiens, UniProt P34913)
T2 sequence (P34913 whole entry): T1 sequence (whole entry)
Description: Inhibition of recombinant human sEH expressed in Escherichia coli assessed as inhibition of substrate PHOME hydrolysis to 6-methoxy-2-naphthaldehyde after 5 mins by fluorescence assay

Row | SMILES | inhibition [1] [%] | inhibition in vivo at 150 mg/kg [2] [%] | pIC50 [3]
1 | CC(C)C(NC(=O)OC(C)(C)C)C(=O)Oc1cccc2oc(=O)[nH]c12 (stereo not drawn) | 48 | 46.5 | 
2 | Cc1ccccc1C(=O)Oc1cccc2oc(=O)[nH]c12 | 26.2 |  | 
3 | O=C(Oc1cccc2oc(=O)[nH]c12)c1cccc(Cl)c1 | 25.3 |  | 
4 | O=c1[nH]c2c(OS(=O)(=O)c3ccccc3Cl)cccc2o1 | 15.2 |  | 
5 | Cc1cccc(S(=O)(=O)Oc2cccc3oc(=O)[nH]c23)c1 | 30.9 |  | 
6 | CC(C)(C)OC(=O)NC(Cc1c[nH]c2ccccc12)C(=O)Oc1cccc2oc(=O)[nH]c12 (stereo not drawn) | 79.6 | 61 | 
7 | O=c1[nH]c2c(OS(=O)(=O)c3ccccc3[N+](=O)[O-])cccc2o1 | 36.1 |  | 
8 | O=c1[nH]c2c(OS(=O)(=O)c3ccc(Cl)cc3)cccc2o1 | 13.6 |  | 
9 | O=c1[nH]c2c(O[C@@H]3O[C@H](CO)[C@H](O)[C@H](O)[C@H]3O)cccc2o1 | 61 |  | 
10 | O=c1[nH]c2c(OS(=O)(=O)c3cccc(Cl)c3)cccc2o1 | 24.5 |  | 
11 | O=C(Oc1cccc2oc(=O)[nH]c12)c1ccc(Cl)cc1 | 27.8 |  | 
12 | O=C(Oc1cccc2oc(=O)[nH]c12)c1ccccc1Cl | 30.8 |  | 
13 | Cc1ccc(C(=O)Oc2cccc3oc(=O)[nH]c23)cc1 | 98.3 |  | 5.97
14 | CC(C)(C)OC(=O)NC(Cc1ccccc1)C(=O)Oc1cccc2oc(=O)[nH]c12 (stereo not drawn) | 90.8 | 64 | 5.57
15 | O=c1[nH]c2c(O[C@@H]3O[C@H](CO)[C@@H](O)[C@H](O)[C@H]3O)cccc2o1 | 45.5 |  | 
16 | CC(C)(C)OC(=O)NCC(=O)Oc1cccc2oc(=O)[nH]c12 | 95.5 | 54.5 | 4.76
17 | Cc1ccccc1S(=O)(=O)Oc1cccc2oc(=O)[nH]c12 | 28 |  | 
18 | O=c1[nH]c2c(OS(=O)(=O)c3cccc([N+](=O)[O-])c3)cccc2o1 | 31.6 |  | 
19 | O=C(Oc1cccc2oc(=O)[nH]c12)c1ccc([N+](=O)[O-])cc1 | 28.1 |  | 
20 | O=c1[nH]c2c(OS(=O)(=O)c3ccccc3)cccc2o1 | 36 |  | 
21 | O=C(Oc1cccc2oc(=O)[nH]c12)c1ccccc1[N+](=O)[O-] | 29.2 |  | 
22 | CC(C)(C)OC(=O)N1CCCC1C(=O)Oc1cccc2oc(=O)[nH]c12 (stereo not drawn) | 101 | 51.5 | 5.76
23 | CC(NC(=O)OC(C)(C)C)C(=O)Oc1cccc2oc(=O)[nH]c12 (stereo not drawn) | 95.7 | 40.7 | 4.79
24 | CSCCC(NC(=O)OC(C)(C)C)C(=O)Oc1cccc2oc(=O)[nH]c12 (stereo not drawn) | 99.6 | 24.8 | 5.52
25 | Cc1ccc(S(=O)(=O)Oc2cccc3oc(=O)[nH]c23)cc1 | 39.9 |  | 
26 | O=C(Oc1cccc2oc(=O)[nH]c12)c1ccccc1 | 28 |  | 
27 | O=c1[nH]c2c(OS(=O)(=O)c3ccc([N+](=O)[O-])cc3)cccc2o1 | 28.8 |  | 
28 | O=C(Oc1cccc2oc(=O)[nH]c12)c1cccc([N+](=O)[O-])c1 | 92.9 |  | 5.52
29 | Cc1cccc(C(=O)Oc2cccc3oc(=O)[nH]c23)c1 | 24.4 |  | 
